In publication PMC11682371 (Scientific Reports, 2024):

Molecular target: T1, recombinant human MAO-B (Homo sapiens, UniProt P27338)
T1 sequence (P27338 1-520): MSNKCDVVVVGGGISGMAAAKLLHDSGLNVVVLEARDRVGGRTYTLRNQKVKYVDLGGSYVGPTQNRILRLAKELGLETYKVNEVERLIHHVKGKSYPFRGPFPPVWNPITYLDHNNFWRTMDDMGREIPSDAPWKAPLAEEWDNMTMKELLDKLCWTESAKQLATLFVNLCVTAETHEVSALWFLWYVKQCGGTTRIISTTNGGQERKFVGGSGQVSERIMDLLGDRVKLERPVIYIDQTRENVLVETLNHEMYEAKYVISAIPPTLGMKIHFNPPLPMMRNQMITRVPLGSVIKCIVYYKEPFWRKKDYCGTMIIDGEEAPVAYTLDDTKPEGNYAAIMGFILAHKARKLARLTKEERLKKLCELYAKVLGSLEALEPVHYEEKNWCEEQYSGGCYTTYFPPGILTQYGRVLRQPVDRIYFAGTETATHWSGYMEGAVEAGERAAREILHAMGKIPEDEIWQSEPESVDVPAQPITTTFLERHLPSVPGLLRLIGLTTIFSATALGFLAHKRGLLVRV
Test: Reversibility of MAO-B inhibition by dialysis
Assay type: biochemical
Settings: dialysis experiment

`C[C@H](NCc1ccc(OCc2cccc(F)c2)cc1)C(N)=O` [Safinamide] was tested. Which “Reversibility of MAO-B inhibition” value did it give?
The value was “reversible”.
